The target in the assay is T1, Human TRPC6 (Homo sapiens, UniProt Q9Y210).
T1 construct: expressed in transfected cells
T1 sequence (Q9Y210 1-931): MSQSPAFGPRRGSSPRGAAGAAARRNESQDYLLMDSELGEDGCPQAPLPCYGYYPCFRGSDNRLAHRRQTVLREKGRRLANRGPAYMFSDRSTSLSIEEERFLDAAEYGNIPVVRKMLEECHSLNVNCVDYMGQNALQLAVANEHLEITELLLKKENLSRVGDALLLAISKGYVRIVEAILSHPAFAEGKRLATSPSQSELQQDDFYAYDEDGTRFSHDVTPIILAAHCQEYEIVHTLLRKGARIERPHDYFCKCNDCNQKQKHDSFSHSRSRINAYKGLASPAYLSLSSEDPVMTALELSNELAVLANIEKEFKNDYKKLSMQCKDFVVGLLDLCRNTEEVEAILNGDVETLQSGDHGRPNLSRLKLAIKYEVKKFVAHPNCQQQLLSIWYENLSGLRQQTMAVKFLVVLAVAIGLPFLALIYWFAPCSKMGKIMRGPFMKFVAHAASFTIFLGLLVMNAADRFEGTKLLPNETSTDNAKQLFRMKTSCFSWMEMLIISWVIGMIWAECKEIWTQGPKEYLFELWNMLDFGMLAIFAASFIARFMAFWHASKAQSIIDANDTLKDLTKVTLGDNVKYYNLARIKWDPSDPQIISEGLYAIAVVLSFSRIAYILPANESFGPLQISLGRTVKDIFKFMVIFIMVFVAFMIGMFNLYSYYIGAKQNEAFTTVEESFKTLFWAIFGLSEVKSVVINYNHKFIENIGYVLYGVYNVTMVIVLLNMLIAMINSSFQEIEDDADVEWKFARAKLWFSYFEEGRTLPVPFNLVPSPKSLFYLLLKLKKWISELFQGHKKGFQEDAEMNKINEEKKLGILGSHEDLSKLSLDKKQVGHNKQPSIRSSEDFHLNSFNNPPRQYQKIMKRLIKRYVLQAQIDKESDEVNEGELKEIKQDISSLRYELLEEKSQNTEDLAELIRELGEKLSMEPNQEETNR
Put plainly: Evaluation of TRPC6 channel inhibitory activity (1), FLIPR Calcium 5 Assay Kit, OAG stimulation (Compound Nos. 1-1293). In kind it is cell-based. The note with it: Human TRPC6 stably-expressing cells, OAG 30 μM, FLIPR Calcium 5 Assay Kit; read-out: Inhibitory activity (pIC50 class) (converted). An outline of the steps: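 TRPC6 (human) stable cells, 24 h culture; Ca5 no-wash dye + probenecid 30 min; cpd 20 min; OAG 30 μM final; ΔF (pre-cpd min to post-OAG max); 0%/100% = no cpd / no cpd + no OAG; 4PL → pIC50, binned +/++/+++.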
`COc1ccccc1-c1cc(Oc2cc(C#N)ccc2-c2ccc(C(O)CN)cn2)n(C)n1` (stereo not drawn) [compound 320, 4-[5-(2-amino-1-hydroxyethyl)pyridin-2-yl]-3-[5-(2-methoxyphenyl)-2-methylpyrazol-3-yl]oxybenzonitrile]: the IC50 was < 10 nM.

Take `Cc1nc(OCC2CC2(F)F)cc(Oc2cc(C#N)ccc2-n2cc([C@@H](O)CN)cn2)n1` (stereo partly drawn) [Compound 271, 4-[4-[(1R)-2-amino-1-hydroxyethyl]pyrazol-1-yl]-3-[6-[(2,2-difluorocyclopropyl)methoxy]-2-methylpyrimidin-4-yl]oxybenzonitrile]: the IC50 was 10 to 1000 nM.

`Cn1nc(N2CCCC2=O)cc1Oc1cc(C#N)ccc1-c1ccc(CCN)cn1` [compound 755, 4-[5-(2-aminoethyl)pyridin-2-yl]-3-[2-methyl-5-(2-oxopyrrolidin-1-yl)pyrazol-3-yl]oxybenzonitrile]: the IC50 was 10 to 1000 nM.

On to `Cn1nc(N2CCOCC2)cc1C(=O)c1cc(F)ccc1-c1ncc(CN)cn1` [compound 1105, [2-[5-(aminomethyl)pyrimidin-2-yl]-5-fluorophenyl]-(2-methyl-5-morpholin-4-ylpyrazol-3-yl)methanone], for which the IC50 is 10 to 1000 nM.

For `Cc1cc(Oc2cc(C#N)ccc2-c2ccc(CCN)cc2)cc(N2CCOCC2)n1` [Compound 138, 4-[4-(2-aminoethyl)phenyl]-3-(2-methyl-6-morpholin-4-ylpyridin-4-yl)oxybenzonitrile], the IC50 was < 10 nM.

Turning to `N#Cc1ccc(-n2cc(CCN)cn2)c(Sc2cnnc(N3CCCC3)c2)c1` [compound 1247, 4-[4-(2-aminoethyl)pyrazol-1-yl]-3-(6-pyrrolidin-1-ylpyridazin-4-yl)sulfanylbenzonitrile], the IC50 was 10 to 1000 nM.

`CN(C)c1cc(Oc2cc(C#N)ccc2-c2ncc(CN)cn2)cnn1` [compound 716, 4-[5-(aminomethyl)pyrimidin-2-yl]-3-[6-(dimethylamino)pyridazin-4-yl]oxybenzonitrile]: the IC50 was 10 to 1000 nM.

Regarding `Cn1nc(N2CC(F)(F)C(F)(F)C2)cc1Oc1cc(C#N)ccc1-c1ncc(CN)cn1` [compound 866, 4-[5-(aminomethyl)pyrimidin-2-yl]-3-[2-methyl-5-(3,3,4,4-tetrafluoropyrrolidin-1-yl)pyrazol-3-yl]oxybenzonitrile], the IC50 is < 10 nM.

Take `Cc1nc(OCC2CCCC2)cc(Oc2cc(C#N)ccc2-c2ccc(CCN)cc2)n1` [Compound 44, 4-[4-(2-aminoethyl)phenyl]-3-[6-(cyclopentylmethoxy)-2-methylpyrimidin-4-yl]oxybenzonitrile]: the IC50 is > 1000 nM.

Take `Cn1nc(C2CCCO2)cc1Oc1cc(C#N)ccc1-c1ccc(CCN)cn1` (stereo not drawn) [compound 484, 4-[5-(2-aminoethyl)pyridin-2-yl]-3-[2-methyl-5-(oxolan-2-yl)pyrazol-3-yl]oxybenzonitrile]: the IC50 was < 10 nM.

Regarding `Cn1nc(C2CC2)cc1Oc1cc(C#N)ccc1-c1ccc2c(N)noc2c1` [compound 414, 4-(3-amino-1,2-benzoxazol-6-yl)-3-(5-cyclopropyl-2-methylpyrazol-3-yl)oxybenzonitrile], the IC50 is > 1000 nM.

For the compound `Cc1nc(Oc2cc(C#N)ccc2-n2cc([C@@H](O)CN)cn2)cc(N2CCCCC2)n1` [Compound 233, 4-[4-[(1R)-2-amino-1-hydroxyethyl]pyrazol-1-yl]-3-(2-methyl-6-piperidin-1-ylpyrimidin-4-yl)oxybenzonitrile], the IC50 was < 10 nM.

On to `Cc1nc(NCC(C)C)cc(Oc2cc(C#N)ccc2-c2ncc(CN)cn2)n1` [compound 634, 4-[5-(aminomethyl)pyrimidin-2-yl]-3-[2-methyl-6-(2-methylpropylamino)pyrimidin-4-yl]oxybenzonitrile], for which the IC50 is < 10 nM.

As to `N#Cc1ccc(-c2ncc(CN)cn2)c(Oc2cnnc(N3CCCCC3)c2)c1` [compound 715, 4-[5-(aminomethyl)pyrimidin-2-yl]-3-(6-piperidin-1-ylpyridazin-4-yl)oxybenzonitrile], the IC50 was < 10 nM.

Consider `Cc1nc(Oc2cc(C#N)ccc2-n2ccc(C(O)CN)n2)cc(N2CCOCC2)n1` (stereo not drawn) [Compound 144, 4-[3-(2-amino-1-hydroxyethyl)pyrazol-1-yl]-3-(2-methyl-6-morpholin-4-ylpyrimidin-4-yl)oxybenzonitrile], for which the IC50 is 10 to 1000 nM.

In the case of `Cc1nc(Oc2cc(C#N)ccc2-c2ccc(CCN)cc2)cc(-c2ccccc2C#N)n1` [Compound 21, 4-[4-(2-Aminoethyl)phenyl]-3-[6-(2-cyanophenyl)-2-methylpyrimidin-4-yl]oxybenzonitrile], the IC50 is < 10 nM.

`Cc1nc(Oc2cc(C#N)ccc2-n2cc([C@@H](O)CN)cn2)cc(N2CCCC2)n1` [Compound 232, 4-[4-[(1R)-2-amino-1-hydroxyethyl]pyrazol-1-yl]-3-(2-methyl-6-pyrrolidin-1-ylpyrimidin-4-yl)oxybenzonitrile]: the IC50 was < 10 nM.

In the case of `Cn1nc(N2CCCCC2)cc1C(=O)c1cc(C#N)ccc1-c1ncc(CN)cn1` [compound 1063, 4-[5-(aminomethyl)pyrimidin-2-yl]-3-(2-methyl-5-piperidin-1-ylpyrazole-3-carbonyl)benzonitrile], the IC50 was < 10 nM.

In the case of `Cc1nc(-c2ccccn2)cn1Cc1cc(C#N)ccc1-c1ccc(CCN)cn1` [compound 1157, 4-[5-(2-aminoethyl)pyridin-2-yl]-3-[(2-methyl-4-pyridin-2-ylimidazol-1-yl)methyl]benzonitrile], the IC50 was 10 to 1000 nM.

Consider `Cc1nc(Oc2cc(C#N)ccc2-c2ncc(CCN)cn2)cc(OC(C)C)n1` [compound 848, 4-[5-(2-aminoethyl)pyrimidin-2-yl]-3-(2-methyl-6-propan-2-yloxypyrimidin-4-yl)oxybenzonitrile], for which the IC50 was < 10 nM.

In the case of `Cn1nc(-c2ccccn2)cc1Oc1cc(C#N)cnc1-c1ccc(CN)cc1` [compound 1288, 6-[4-(aminomethyl)phenyl]-5-(2-methyl-5-pyridin-2-ylpyrazol-3-yl)oxypyridine-3-carbonitrile], the IC50 is > 1000 nM.

On to `Cc1nn(CC(F)F)cc1Oc1cc(C#N)ccc1-c1ncc(CCN)cn1` [compound 924, 4-[5-(2-aminoethyl)pyrimidin-2-yl]-3-[1-(2,2-difluoroethyl)-3-methylpyrazol-4-yl]oxybenzonitrile], for which the IC50 is 10 to 1000 nM.

Consider `Cc1cc(Oc2cc(C#N)ccc2-c2ccc([C@H](O)CN)cn2)cc(-c2nc(C)cs2)n1` [compound 694, 4-[5-[(1S)-2-amino-1-hydroxyethyl]pyridin-2-yl]-3-[2-methyl-6-(4-methyl-1,3-thiazol-2-yl)pyridin-4-yl]oxybenzonitrile], for which the IC50 was 10 to 1000 nM.

As for `Cn1nc(-c2ncccn2)cc1Oc1cc(C#N)ccc1-c1ccc([C@H](O)CN)cn1` [compound 540, 4-[5-[(1S)-2-amino-1-hydroxyethyl]pyridin-2-yl]-3-(2-methyl-5-pyrimidin-2-ylpyrazol-3-yl)oxybenzonitrile], the IC50 was > 1000 nM.

Turning to `Cn1nc(-c2ccccc2)cc1Oc1nc(Cl)ccc1-c1ccc(CN)cn1` [compound 1293, [6-[6-chloro-2-(2-methyl-5-phenylpyrazol-3-yl)oxypyridin-3-yl]pyridin-3-yl]methanamine], the IC50 is 10 to 1000 nM.

Consider `Cc1nc(Oc2cc(C#N)ccc2-c2ccc(C3(CN)CC3)cc2)cc(N2CCOCC2)n1` [Compound 67, 4-[4-[1-(aminomethyl)cyclopropyl]phenyl]-3-(2-methyl-6-morpholin-4-ylpyrimidin-4-yl)oxybenzonitrile], for which the IC50 is 10 to 1000 nM.

For the compound `Cn1nc(-c2ccccn2)cc1Oc1cc(C#N)ccc1-c1ccc(CN)n2cnnc12` [compound 589, 4-[5-(aminomethyl)-[1,2,4]triazolo[4,3-a]pyridin-8-yl]-3-(2-methyl-5-pyridin-2-ylpyrazol-3-yl)oxybenzonitrile], the IC50 is 10 to 1000 nM.

As for `Cn1nc(C2CCOCC2)cc1Oc1cc(C#N)ccc1-c1ncc(CN)cn1` [compound 441, 4-[5-(aminomethyl)pyrimidin-2-yl]-3-[2-methyl-5-(oxan-4-yl)pyrazol-3-yl]oxybenzonitrile], the IC50 is < 10 nM.

Turning to `Cn1nc(C(F)(F)F)cc1Oc1cc(C#N)ccc1-c1ncc([C@@H](F)CN)cn1` [compound 904, 4-[5-[(1R)-2-amino-1-fluoroethyl]pyrimidin-2-yl]-3-[2-methyl-5-(trifluoromethyl)pyrazol-3-yl]oxybenzonitrile], the IC50 is < 10 nM.

For `Cn1nc(C2CC2)cc1Oc1cc(F)ccc1-c1ccc(CN)cn1` [compound 1016, [6-[2-(5-cyclopropyl-2-methylpyrazol-3-yl)oxy-4-fluorophenyl]pyridin-3 - yl]methanamine], the IC50 is 10 to 1000 nM.
